pEC50: −log10 of the molar value.

The target in this assay is T1, human M4 muscarinic acetylcholine receptor (Homo sapiens, UniProt P08173).
T1 construct: expressed in transfected cells; host or cells: CHO-K1
T1 sequence (P08173 1-479): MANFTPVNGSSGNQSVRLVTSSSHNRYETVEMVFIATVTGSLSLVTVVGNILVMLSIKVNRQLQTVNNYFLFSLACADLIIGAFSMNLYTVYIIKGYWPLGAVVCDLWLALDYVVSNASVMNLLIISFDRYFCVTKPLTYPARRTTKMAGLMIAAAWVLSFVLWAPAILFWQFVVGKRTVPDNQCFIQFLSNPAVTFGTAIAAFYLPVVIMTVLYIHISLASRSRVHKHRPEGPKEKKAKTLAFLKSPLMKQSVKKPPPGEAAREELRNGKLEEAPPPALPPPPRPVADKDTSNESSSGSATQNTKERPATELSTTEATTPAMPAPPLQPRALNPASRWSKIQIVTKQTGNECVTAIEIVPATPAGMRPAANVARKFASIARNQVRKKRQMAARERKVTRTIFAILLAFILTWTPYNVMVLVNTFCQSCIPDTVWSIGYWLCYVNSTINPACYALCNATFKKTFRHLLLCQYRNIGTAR
The experiment in a line: human FLIPR-based M4 PAM assay, CHO-K1 cells stably transfected with human M4 receptor and chimeric G-protein Gαqi5. The conditions noted are these: inflection point (IP) of dose response curve; acetylcholine added at 20% of maximum response; CHO-K1 human M4/Gαqi5, FLIPR Tetra. The assay is classed as cell-based. Put shortly: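 The FLIPR read recorded 4 min after compound was added across a concentration range, then 3.5 min after acetylcholine giving 20% of its maximal response, with an occasional extra EC70 addition. Cells were dye-loaded for about 1 h at 37 °C. Potency is the curve inflection point from a four-parameter logistic fit.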
Take `COc1ccc(OC2CCN(c3ncnc(-c4ccoc4)c3C)CC2)cn1` [Example 252, 4-(furan-3-yl)-6-(4-((6-methoxypyridin-3-yl)oxy)piperidin-1-yl)-5-methylpyrimidine]: the pEC50 was 5.77.

In turn, `Cc1c(Cl)ncnc1N1CCC(Oc2cccnc2)CC1` [Example 14, 4-chloro-5-methyl-6-(4-(pyridin-3-yloxy)piperidin-1-yl)pyrimidine] gave a pEC50 of 6.22. Consider `COc1ccc(OC2CCN(c3nnc(C(=O)N[C@H]4CCc5cccnc5C4)cc3C)CC2)cn1` [Example 126B, (S)-6-{4-[(6-methoxypyridin-3-yl)oxy]piperidin-1-yl}-5-methyl-N-(5,6,7,8-tetrahydroquinolin-7-yl)pyridazine-3-carboxamide], for which the negative logarithm of the EC50 (pEC50) is 6.80. For `COc1ccc(OC2CCN(c3nnc(C#N)cc3C)CC2)cn1` [Example 258, 6-(4-((6-Methoxypyridin-3-yl)oxy)piperidin-1-yl)-5-methylpyridazine-3-carbonitrile], the negative logarithm of the EC50 (pEC50) is 7.14. This pEC50 lies 0.34 log units higher than the previous one. Regarding `Cc1c(Cl)nc(CO)nc1N1CCC(Oc2ccc3c(c2)C(=O)N(C)CC3)CC1` [Example 41, 7-((1-(6-chloro-2-(hydroxymethyl)-5-methylpyrimidin-4-yl)piperidin-4-yl)oxy)-2-methyl-3,4-dihdyroisoquinolin-1(2H)-one], the pEC50 was 6.49. `COc1ncc(OC2CCN(c3nc(CO)nc(Cl)c3C)CC2)cc1Cl` [Example 65, (4-chloro-6-(4-((5-chloro-6-methoxypyridin-3-yl)oxy)piperidin-1-yl)-5-methylpyrimidin-2-yl)methanol] showed a negative-log EC50 (pEC50) of 7.00. On to `COc1ncc(OC2CCN(c3nc(CO)nc(Cl)c3C)CC2)cc1F` [Example 54, (4-chloro-6-(4-((5-fluoro-6-methoxypyridin-3-yl)oxy)piperidin-1-yl)-5-methylpyrimidin-2-yl)methanol], for which the pEC50 was 7.26. The result for `COc1ccc(OC2CCN(c3nc(C(=O)NCc4cnsc4)nc(Cl)c3C)CC2)cn1` [Example 225, 4-chloro-N-(isothiazol-4-ylmethyl)-6-(4-((6-methoxypyridin-3-yl)oxy)piperidin-1-yl)-5-methylpyrimidine-2-carboxamide] reads 6.49. `Cc1nc2ccc(OC3CCN(c4nnc(C(=O)NCc5ccncc5)cc4C)CC3)cc2o1` [Example 143, 5-methyl-6-{4-[(2-methyl-1,3-benzoxazol-6-yl)oxy]piperidin-1-yl}-N-(pyridin-4-ylmethyl)pyridazine-3-carboxamide]: the pEC50 is 6.71. As to `COc1ccc(OC2CCN(c3ncnc(-c4ccc(F)cc4)c3C)CC2)cn1` [Example 257, 4-(4-fluorophenyl)-6-(4-((6-methoxypyridin-3-yl)oxy)piperidin-1-yl)-5-methylpyrimidine], the pEC50 is 5.57. Turning to `COc1ccc(OC2CCN(c3nnc(-c4nnc(C)o4)cc3C)CC2)cn1` [Example 263, 2-(6-(4-((6-Methoxypyridin-3-yl)oxy)piperidin-1-yl)-5-methylpyridazin-3-yl)-5-methyl-1,3,4-oxadiazole], the negative-log EC50 (pEC50) was 6.60. As to `Cc1c(Cl)nc(CO)nc1N1CCC(Oc2ccc(S(C)(=O)=O)cc2)CC1` [Example 8, (4-chloro-5-methyl-6-(4-(4-(methylsulfonyl)phenoxy)piperidin-1-yl)pyrimidin-2-yl)methanol], the pEC50 was 5.86. As to `Cc1cc(C(=O)NCc2ccncc2)nnc1N1CCC(OCC2CC2)CC1` [Example 152], the pEC50 was 6.59. Against the preceding compound, the pEC50 is 0.73 log units higher. The compound `Cc1c(Cl)nc(C2CC2)nc1N1CCC(Oc2cccnc2)CC1` [Example 95B, 4-chloro-2-cyclopropyl-5-methyl-6-(4-(pyridin-3-yloxy)piperidin-1-yl)pyrimidine] had a pEC50 of 6.36. Regarding `COc1ccc(OC2CCN(c3nc(OC)nc(Cl)c3C)CC2)cn1` [Example 227, 4-Chloro-2-methoxy-6-(4-((6-methoxypyridin-3-yl)oxy)piperidin-1-yl)-5-methylpyrimidine], the negative logarithm of the EC50 (pEC50) is 7.26. Turning to `COc1ncc(C#N)c(N2CCC(Oc3cccc(C#N)c3)CC2)n1` [Example 88, 4-(4-(3-cyanophenoxy)piperidin-1-yl)-2-methoxypyrimidine-5-carbonitrile], the negative logarithm of the EC50 (pEC50) was 5.81. This pEC50 lies 1.45 log units lower than the previous one. On to `Cc1c(-c2ccc3c(c2)OCCO3)ncnc1N1CCC(Oc2cccc(C#N)c2)CC1` [Example 250, 3-((1-(6-(2,3-dihydrobenzo[b][1,4]dioxin-6-yl)-5-methylpyrimidin-4-yl)piperidin-4-yl)oxy)benzonitrile], for which the pEC50 was 5.95.

Compound `COc1ncc(OC2CCN(c3nnc(C(=O)NCc4ccncc4)cc3C)CC2)cc1F` [Example 140, 6-{4-[(5-fluoro-6-methoxypyridin-3-yl)oxy]piperidin-1-yl}-5-methyl-N-(pyridin-4-ylmethyl)pyridazine-3-carboxamide] gave a negative-log EC50 (pEC50) of 6.75. Turning to `COc1ccc(OC2CCN(c3nnc(C(=O)NCc4ccccc4Cl)cc3C)CC2)cn1` [Example 195, N-(2-chlorobenzyl)-6-{4-[(6-methoxypyridin-3-yl)oxy]piperidin-1-yl}-5-methylpyridazine-3-carboxamide], the pEC50 is 7.24. Take `COC(=O)c1cc(C)c(N2CCC(Oc3ccc4c(c3)COC4)CC2)nc1Cl` [Example 267, Methyl 2-chloro-6-(4-((1,3-dihydroisobenzofuran-5-yl)oxy)piperidin-1-yl)-5-methylnicotinate]: the pEC50 was 5.59. `CONC(=O)c1cc(C)c(N2CCC(Oc3cccc(C#N)c3)CC2)nn1` [Example 132, 6-[4-(3-cyanophenoxy)piperidin-1-yl]-N-methoxy-5-methypyridazine-3-carboxamide] showed a pEC50 of 6.86. Take `COc1ccc(OC2CCN(c3ncnc(N4CC(F)(F)C4)c3C)CC2)cn1` [Example 236, 4-(3,3-difluoroazetidin-1-yl)-6-(4-((6-methoxypyridin-3-yl)oxy)piperidin-1-yl)-5-methylpyrimidine]: the negative logarithm of the EC50 (pEC50) is 6.64. The result for `CSc1nc(Cl)c(C)c(N2CCC(Oc3cccnc3)CC2)n1` [Example 15, 4-chloro-5-methyl-2-(methylthio)-6-(4-(pyridin-3-yloxy)piperidin-1-yl)pyrimidine] reads 6.13.

As for `COc1ccc(OC2CCN(c3nnc(C(=O)NCc4ccc5c(c4)CNC5=O)cc3C)CC2)cn1` [Example 175, 6-{4-[(6-methoxypyridin-3-yl)oxy]piperidin-1-yl}-5-methyl-N-[(1-oxo-2,3-dihydro-1H-isoindol-5-yl)methyl]pyridazine-3-carboxamide], the pEC50 is 6.24. With `Cc1ccc(OC2CCN(c3nnc(C(=O)NCc4ccncc4)cc3C)CC2)cc1Cl` [Example 156, 6-[4-(3-chloro-4-methylphenoxy)piperidin-1-yl]-5-methyl-N-(pyridin-4-ylmethyl)pyridazine-3-carboxamide], the pEC50 is 6.57. Consider `COc1ccc(OC2CCN(c3nc(SC)ncc3C#N)CC2)cn1` [Example 85, 4-(4-((6-methoxypyridin-3-yl)oxy)piperidin-1-yl)-2-(methylthio)pyrimidine-5-carbonitrile], for which the pEC50 is 5.94. In the case of `Cc1cc(C(=O)NCc2ccncc2)c(N)nc1N1CCC(Oc2cccc(C#N)c2)CC1` [Example 266, 2-Amino-6-(4-(3-cyanophenoxy)piperidin-1-yl)-5-methyl-N-(pyridin-4-ylmethyl)nicotinamide], the pEC50 was 5.37.

As usually defined, the pEC50 is −log10 of the EC50, conventionally taken in molar units.

Values taken from patent publication US11319298B2 (Merck Sharp & Dohme Corp., priority 2016, dated 2022).
